Laboratory results as given in EP4768484A1, “HETEROCYCLIC FUSED RING COMPOUND, AND COMPOSITION AND USE THEREOF” (Shenzhen TargetRx, Inc., priority 2023, dated 2025).

Legend:
Assay type in all cases: cell-based
K562 cells = experiment: Cell growth inhibitory activity assay (CellTiter-Glo), K562 cells; details: Homo sapiens, 72 h, CTG cell viability
How it was run: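 K562 cells in logarithmic growth were counted, diluted and plated in 96-well plates, with medium-only blanks and a separate T0 plate read by CTG the following day. After overnight incubation, graded compound concentrations were added for 72 h, with 0.5% DMSO wells as growth controls. Luminescence was read on a Biotek cytation3.0, and IC50 came from nonlinear fitting in GraphPad Prism 7.0.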

Ba/F3 BCR-ABL1 WT = target: T1, Ba/F3 BCR-ABL1 WT (Homo sapiens, UniProt P00519+P11274); experiment: Cell growth inhibitory activity assay (CellTiter-Glo), Ba/F3 BCR-ABL1 WT cells; details: 72 h, CTG cell viability
T1 construct: BCR (N-terminal fusion partner of the oncoprotein); expressed in transfected cells; host or cells: Ba/F3 (lentiviral transduction, monoclonal line)
How it was run: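 Ba/F3 parental cells or Ba/F3 lines lentivirally transduced with WT or mutant BCR-ABL1, seeded overnight then exposed to serially diluted compound 72 h at 37 °C, 5% CO2. Viability by CellTiter-Glo ATP luminescence with a T0 plate; 0.5% DMSO controls; IC50 from four-parameter nonlinear fit.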

Ba/F3 BCR-ABL1 T315I = target: T2, Ba/F3 BCR-ABL1 T315I (Homo sapiens, UniProt P00519+P11274, T315I); experiment: Cell growth inhibitory activity assay (CellTiter-Glo), Ba/F3 BCR-ABL1 T315I cells; details: 72 h, CTG cell viability
T2 construct: BCR (N-terminal fusion partner of the oncoprotein); expressed in transfected cells; host or cells: Ba/F3 (lentiviral transduction, monoclonal line)
How it was run: (§1)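 Luminescent ATP read-out (CellTiter-Glo) after 72 h compound exposure at 37 °C, 5% CO2. Cells: monoclonal Ba/F3 lentivirally engineered with mutant BCR-ABL1, or parental Ba/F3. A T0 plate read the day after seeding; 0.5% DMSO wells as uninhibited growth control. IC50 via variable-slope logistic fit of % inhibition.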

Ba/F3 BCR-ABL1 T315M = target: T3, Ba/F3 BCR-ABL1 T315M (Homo sapiens, UniProt P00519+P11274, T315M); experiment: Cell growth inhibitory activity assay (CellTiter-Glo), Ba/F3 BCR-ABL1 T315M cells; details: 72 h, CTG cell viability
T3 construct: BCR (N-terminal fusion partner of the oncoprotein); expressed in transfected cells; host or cells: Ba/F3 (lentiviral transduction, monoclonal line)
Method: (§2) In this assay, the Celltiter-Glo (CTG) kit provided by Promega was used, and it is a homogeneous cell viability assay method. The cell viability of cultured cells was measured by quantifying ATP. K562 cells were purchased from Nanjing Kebai, product number CBP60529; Ba/F3 parental cells were purchased from RIKEN BRC, product number RCB0805; other cells containing BCR-ABL1 WT, BCR-ABL1 T315I, BCR-ABL1 T315M, BCR-ABL1 Y253H/E255K, BCR-ABL1 E255V/T3151, BCR-ABL1 A424T, BCR-ABL1 A337V, BCR-ABL1 P465S, BCR-ABL1 V468F, and BCR-ABL1 I502L were all monoclonal engineered cell lines obtained by transducting Ba/F3 parental cells with the lentivirus plasmids containing WT or corresponding mutated BCR-ABL1.
(§3) The steps of cell viability assay are as follows: • a) Cells in logarithmic growth phase were collected. Cell suspension was prepared and the cells were counted. Concentration of the cells was calculated. • b) The cell suspension was diluted to the required concentration and then added to the middle wells of a 96-well plate, and PBS was added to the edge wells. The wells with no cells and only culture medium were used as blank controls. • c) In addition to the cell plate used for compound analysis, another 96-well plate was prepared as a T0 plate, and 3-6 blank wells and 3-6 cell wells were added. The next day, CTG was used to test the cell viability as the T0 viability value of the cells. • d) The cell plate was incubated at 37 °C in a 5% CO2 incubator overnight. • e) The next day, each concentration of a compound subjected to a gradient dilution was added, and the cell plate was incubated at 37 °C in a 5% CO2 incubator for 72 h. The wells with no compound and only 0.5% DMSO were used as positive controls for cell growth. • f) CTG reagent (CellTiter-Glo kit) was added according to the manufacturer's instructions to test the cell viability value. • g) The plate was read using Biotek cytation3.0 microplate reader and the data were exported. • h) IC50 was calculated using GraphPad Prism 7.0 software.
(§4) The IC50 (half-maximal inhibitory concentration) of the compound was obtained using the following nonlinear fitting formula: Y = Bottom + (Top−Bottom)/(1+10^(∧)((LogIC50−X)*HillSlope)) [formula] • X: Log value of the compound concentration • Y: Inhibition rate (% inhibition) • Top: Maximum response • Bottom: Baseline response • HillSlope: Slope of the curve
(§5) The formula for calculating cell inhibition rate (inhibition rate %) was: [formula]

Ba/F3 parental cells = experiment: Cell growth inhibitory activity assay (CellTiter-Glo), Ba/F3 parental cells; details: Mus musculus, BaF3, 72 h, CTG cell viability, read-out: IC50 Ba/F3 BCR-ABL1 Parental
How it was run: as §1

[1] = target: T4, Ba/F3 BCR-ABL1 Y253H/E255K (Homo sapiens, UniProt P00519+P11274, E255K/Y253H); experiment: Cell growth inhibitory activity assay (CellTiter-Glo), Ba/F3 BCR-ABL1 Y253H/E255K cells; details: 72 h, CTG cell viability
T4 construct: BCR (N-terminal fusion partner of the oncoprotein); expressed in transfected cells; host or cells: Ba/F3 (lentiviral transduction, monoclonal line)
Method: as §2, §3, §4, §5

[2] = target: T5, Ba/F3 BCR-ABL1 E255V/T315I (Homo sapiens, UniProt P00519+P11274, E255V/T315I); experiment: Cell growth inhibitory activity assay (CellTiter-Glo), Ba/F3 BCR-ABL1 E255V/T315I cells; details: 72 h, CTG cell viability
T5 construct: BCR (N-terminal fusion partner of the oncoprotein); expressed in transfected cells; host or cells: Ba/F3 (lentiviral transduction, monoclonal line)
Method: as §2, §3, §4, §5

Ba/F3 BCR-ABL1 A424T = target: T6, Ba/F3 BCR-ABL1 A424T (Homo sapiens, UniProt P00519+P11274, A424T); experiment: Cell growth inhibitory activity assay (CellTiter-Glo), Ba/F3 BCR-ABL1 A424T cells; details: 72 h, CTG cell viability
T6 construct: BCR (N-terminal fusion partner of the oncoprotein); expressed in transfected cells; host or cells: Ba/F3 (lentiviral transduction, monoclonal line)
Method: as §2, §3, §4, §5

Ba/F3 BCR-ABL1 V468F = target: T7, Ba/F3 BCR-ABL1 V468F (Homo sapiens, UniProt P00519+P11274, V468F); experiment: Cell growth inhibitory activity assay (CellTiter-Glo), Ba/F3 BCR-ABL1 V468F cells; details: 72 h, CTG cell viability
T7 construct: BCR (N-terminal fusion partner of the oncoprotein); expressed in transfected cells; host or cells: Ba/F3 (lentiviral transduction, monoclonal line)
Method: as §2, §3, §4, §5

Ba/F3 BCR-ABL1 A337V = target: T8, Ba/F3 BCR-ABL1 A337V (Homo sapiens, UniProt P00519+P11274, A337V); experiment: Cell growth inhibitory activity assay (CellTiter-Glo), Ba/F3 BCR-ABL1 A337V cells; details: 72 h, CTG cell viability
T8 construct: BCR (N-terminal fusion partner of the oncoprotein); expressed in transfected cells; host or cells: Ba/F3 (lentiviral transduction, monoclonal line)
Method: as §2, §3, §4, §5

Ba/F3 BCR-ABL1 P465S = target: T9, Ba/F3 BCR-ABL1 P465S (Homo sapiens, UniProt P00519+P11274, P465S); experiment: Cell growth inhibitory activity assay (CellTiter-Glo), Ba/F3 BCR-ABL1 P465S cells; details: 72 h, CTG cell viability
T9 construct: BCR (N-terminal fusion partner of the oncoprotein); expressed in transfected cells; host or cells: Ba/F3 (lentiviral transduction, monoclonal line)
Method: as §2, §3, §4, §5

Ba/F3 BCR-ABL1 I502L = target: T10, Ba/F3 BCR-ABL1 I502L (Homo sapiens, UniProt P00519+P11274, I502L); experiment: Cell growth inhibitory activity assay (CellTiter-Glo), Ba/F3 BCR-ABL1 I502L cells; details: 72 h, CTG cell viability
T10 construct: BCR (N-terminal fusion partner of the oncoprotein); expressed in transfected cells; host or cells: Ba/F3 (lentiviral transduction, monoclonal line)
Method: as §2, §3, §4, §5

Structure (SMILES) | IC50 (K562 cells) | IC50 (Ba/F3 BCR-ABL1 WT) | IC50 (Ba/F3 BCR-ABL1 T315I) | IC50 (Ba/F3 BCR-ABL1 T315M) | IC50 (Ba/F3 parental cells) | IC50 [1] | IC50 [2] | IC50 (Ba/F3 BCR-ABL1 A424T) | IC50 (Ba/F3 BCR-ABL1 V468F) | IC50 (Ba/F3 BCR-ABL1 A337V) | IC50 (Ba/F3 BCR-ABL1 P465S) | IC50 (Ba/F3 BCR-ABL1 I502L)
CC(=O)NC1CCC2c3cc(C(=O)Nc4ccc(OC(F)(F)Cl)cc4)cc(-c4cnc5c(c4)C(=O)N(C)C5)c3N(C(C)C)C12 (racemic) [T-11, 3-acetamido-N-(4-(chlorodifluoromethoxy)phenyl)-4-isopropyl-5-(6-methyl-5-oxo-6,7-dihydro-5H-pyrrolo[3,4-b]pyridin-3-yl)-1,2,3,3a,4,8b-hexahydrocyclopenta[b]indole-7-carboxamide] | ≤ 5 nM | ≤ 5 nM | 50 to 1000 nM | > 1000 nM | > 1000 nM | 50 to 1000 nM | 50 to 1000 nM | 50 to 1000 nM | > 1000 nM |  |  | 
CC(C)n1cnc2cc(C(=O)Nc3ccc(OC(F)(F)Cl)cc3)cc(-c3cnc4c(c3)C(=O)N(C)C4)c21 [T-2, N-(4-(chlorodifluoromethoxy)phenyl)-1-isopropyl-7-(6-methyl-5-oxo-6,7-dihydro-5H-pyrrolo[3,4-b]pyridin-3-yl)-1H-benzo[d]imidazole-5-carboxamide] | ≤ 5 nM | ≤ 5 nM | 5 to 50 nM |  | > 1000 nM |  | 5 to 50 nM | 50 to 1000 nM | 50 to 1000 nM | 50 to 1000 nM | 50 to 1000 nM | 50 to 1000 nM
C[C@@H]1COCc2nc3cc(C(=O)Nc4ccc(OC(F)(F)Cl)cc4)cc(-c4cnc5c(c4)-c4n[nH]cc4C5)c3n21 [T-3, (R)-N-(4-(chlorodifluoromethoxy)phenyl)-6-(2,4-dihydropyrazolo[3',4':3,4]cyclopenta[1,2-b]pyridin-7-yl)-4-methyl-3,4-dihydro-1H-benzo[4,5]imidazo[2,1-c][1,4]oxazine-8-carboxamide] | ≤ 5 nM | ≤ 5 nM | ≤ 5 nM | 50 to 1000 nM | > 1000 nM | ≤ 5 nM | ≤ 5 nM | 5 to 50 nM | 5 to 50 nM | 5 to 50 nM | 5 to 50 nM | 5 to 50 nM
C[C@@H]1COCc2nc3cc(C(=O)Nc4ccc(OC(F)(F)Cl)cc4)cc(-c4cnc5c(c4)-c4nn(-c6ccccn6)cc4C5)c3n21 [T-4] | ≤ 5 nM | ≤ 5 nM | ≤ 5 nM | > 1000 nM | > 1000 nM | ≤ 5 nM | 5 to 50 nM | 5 to 50 nM | 50 to 1000 nM | 50 to 1000 nM | 50 to 1000 nM | 5 to 50 nM
CN1Cc2ncc(-c3cc(C(=O)Nc4ccc(OC(F)(F)Cl)cc4)cc4c3C(C)(C)C(=O)N4)cc2C1=O [T-7, N-(4-(chlorodifluoromethoxy)phenyl)-3,3-dimethyl-4-(6-methyl-5-oxo-6,7-dihydro-5H-pyrrolo[3,4-b]pyridin-3-yl)-2-oxoindoline-6-carboxamide] | ≤ 5 nM | ≤ 5 nM | 5 to 50 nM |  | > 1000 nM |  | 5 to 50 nM | > 1000 nM | 50 to 1000 nM | > 1000 nM | > 1000 nM | 50 to 1000 nM
CCn1cc2c(n1)-c1cc(-c3cc(C(=O)Nc4ccc(OC(F)(F)Cl)cc4)cc4nc5n(c34)[C@H](C)COC5)cnc1C2 [T-18, (R)-N-(4-(chlorodifluoromethoxy)phenyl)-6-(2-ethyl-2,4-dihydropyrazolo[3',4':3,4]cyclopenta[1,2-b]pyridin-7-yl)-4-methyl-3,4-dihydro-1H-benzo[4,5]imidazo[2,1-c][1,4]oxazine-8-carboxamide] | ≤ 5 nM | ≤ 5 nM | ≤ 5 nM | > 1000 nM | > 1000 nM | ≤ 5 nM | ≤ 5 nM | 5 to 50 nM | 5 to 50 nM | 5 to 50 nM | 5 to 50 nM | 5 to 50 nM
C[C@@H]1COCc2nc3cc(C(=O)Nc4ccc(OC(F)(F)Cl)cc4)cc(-c4cnc5c(c4)C(=O)N(C4CC4)C5)c3n21 [T-25, (R)-N-(4-(chlorodifluoromethoxy)phenyl)-6-(6-cyclopropyl-5-oxo-6,7-dihydro-5H-pyrrolo[3,4-b]pyridin-3-yl)-4-methyl-3,4-dihydro-1H-benzo[4,5]imidazo[2,1-c][1,4]oxazine-8-carboxamide] | ≤ 5 nM | ≤ 5 nM | 5 to 50 nM | > 1000 nM | > 1000 nM | 5 to 50 nM | 5 to 50 nM | 5 to 50 nM |  |  |  | 
C[C@@H]1COCc2nc3cc(C(=O)Nc4ccc(OC(F)(F)Cl)cc4)cc(-c4cnc5c(c4)-c4nn(-c6ncc(F)cn6)cc4C5)c3n21 [T-68, (R)-N-(4-(chlorodifluoromethoxy)phenyl)-6-(2-(5-fluoropyrimidin-2-yl)-2,4-dihydropyrazolo[3',4':3,4]cyclopenta[1,2-b]pyridin-7-yl)-4-methyl-3,4-dihydro-1H-benzo[4,5]imidazo[2,1-c][1,4]oxazine-8-carboxamide] | ≤ 5 nM | ≤ 5 nM | ≤ 5 nM | ≤ 5 nM | > 1000 nM |  |  | ≤ 5 nM | 5 to 50 nM | 5 to 50 nM | 5 to 50 nM | ≤ 5 nM
